Legend:
Assay type in all cases: cell-based
[1] = test system: GOT3 cell line; test: High throughput drug sensitivity and resistance test (CellTiter-Glo, 72 hours); settings: GOT3; for GOT3 cell line: DSS(combo (BAY2666605))-DSS(drug): drug combined with BAY2666605 (40 nM) minus drug alone; for GOT3 cell line: DSS(combo (anagrelide))-DSS(drug): drug combined with anagrelide hydrochloride (100 nM) minus drug alone
Procedure: (§1) Cell lines. PDE3A-positive (GIST882, SA4, and GOT3) and PDE3A-negative cell lines (93TT449, 94T778, LPS141, MLS17656-92, MLS402-91, and SW872) were cultured in RPMI Medium 1640 (Gibco) with 5-, 10- or 20% fetal bovine serum (FBS, gibco), 100 U/mL of penicillin, 100 […] and 0.03 mg/mL of L-glutamine (Pen Strep Glut, Gibco, 10378-016) in a humidified, 5% CO2 atmosphere at 37° C.
(§2) High throughput drug sensitivity and resistance test. A sensitivity and resistance of cancer cell lines to 528 compounds were investigated in 9 cell lines (GIST882, SA4, GOT3, 93TT449, 94T778, LPS141, MLS17656-92, MLS402-91, and SW872). In addition, same compounds were investigated together with anagrelide hydrochloride (100 nM) treatment in the PDE3A low expressing cell lines SA4 and GOT3, and with BAY2666605 (40 nM) in all PDE3A-positive cell lines GIST882, SA4 and GOT3. The compounds were dissolved in 100% dimethyl sulfoxide or water and plated in 10-fold dilutions covering a 10,000-fold concentration range on flat clear bottom 384-well microplates as described in detail earlier (Pulkka O P, et al 2019). A cell viability was measured after 72 hours using CellTiter-Glo Cell Viability assay (Promega Inc.) and PHERAstar FS plate reader (BMG Labtech). The data were normalized to negative (0.01% dimethyl sulfoxide only) and positive (100 μmol/L benzethonium chloride) controls.
(§3) A four-parameter logistic dose-response curves were estimated by using the Marquardt-Levenberg algorithm and Breeze analysis platform. Drug responses to the test compounds were measured using the drug sensitivity score (DSS). Drug synergy partners, which were common in investigated cell lines were identified as following: DSS value of a single agent was subtracted from the DSS value of anagrelide-drug combination in single cell lines. […] The analysis was repeated by using BAY2666605 as a PDE3A modulator.

[2] = test system: SA4 cell line; test: as above; settings: SA4; for SA4 cell line: DSS(combo (BAY2666605))-DSS(drug): drug combined with BAY2666605 (40 nM) minus drug alone; for SA4 cell line: DSS(combo (anagrelide))-DSS(drug): drug combined with anagrelide hydrochloride (100 nM) minus drug alone
Procedure: as §1, §2, §3

[3] = test system: GIST882 cell line; test: as above; settings: drug combined with BAY2666605 (40 nM) minus drug alone
Procedure: High throughput drug sensitivity and resistance test. […] In addition, same compounds were investigated together with anagrelide hydrochloride (100 nM) treatment in the PDE3A low expressing cell lines SA4 and GOT3, and with BAY2666605 (40 nM) in all PDE3A-positive cell lines GIST882, SA4 and GOT3. […] A cell viability was measured after 72 hours using CellTiter-Glo Cell Viability assay (Promega Inc.) and PHERAstar FS plate reader (BMG Labtech). The data were normalized to negative (0.01% dimethyl sulfoxide only) and positive (100 μmol/L benzethonium chloride) controls.
as §3

[4] = test system: GOT3 and SA4 cell lines; test: High throughput drug sensitivity and resistance test, average over cell lines (anagrelide combination); settings: anagrelide combination, average of SA4 and GOT3; aDSS higher than 3.0 = synergy
Procedure: as §1, §2, §3

[5] = test system: GIST882, GOT3 and SA4 cell lines; test: High throughput drug sensitivity and resistance test, average over cell lines (BAY2666605 combination); settings: for Average DSS (aDSS): BAY2666605 combination, average of GIST882, SA4 and GOT3, aDSS higher than 3.0 = synergy; for synergy in high-throughput screening (in words): with anagrelide (GOT3, SA4) or BAY2666605 (GIST882, GOT3, SA4)
Procedure: as §1, §2, §3

Cc1[nH]c2ccccc2c1CCNCc1ccc(/C=C/C(=O)NO)cc1 [Panobinostat, panobinostat]
GOT3 cell line: DSS(combo (BAY2666605))-DSS(drug) [1]: 8.2
GOT3 cell line: DSS(combo (anagrelide))-DSS(drug) [1]: −0.5
SA4 cell line: DSS(combo (BAY2666605))-DSS(drug) [2]: 6.7
SA4 cell line: DSS(combo (anagrelide))-DSS(drug) [2]: 11.7
GIST882 cell line: DSS(combo (BAY2666605))-DSS(drug) [3]: 6.1
Average DSS (aDSS) [4]: 5.6
Average DSS (aDSS) [5]: 7.0

CC(=O)c1cnc2ccc(-c3cc(Cl)c(O)c(Cl)c3)nc2c1N[C@H]1CC[C@H](CN(C)C)CC1 [OTS167]
GOT3 cell line: DSS(combo (BAY2666605))-DSS(drug) [1]: 3.2
GOT3 cell line: DSS(combo (anagrelide))-DSS(drug) [1]: 0.6
SA4 cell line: DSS(combo (BAY2666605))-DSS(drug) [2]: 10.5
SA4 cell line: DSS(combo (anagrelide))-DSS(drug) [2]: 10.5
GIST882 cell line: DSS(combo (BAY2666605))-DSS(drug) [3]: 1.9
Average DSS (aDSS) [4]: 5.55
Average DSS (aDSS) [5]: 5.2
synergy in high-throughput screening (in words) [5]: synergistic

COc1cc(C(=O)O)ccc1NC(=O)[C@@H]1N[C@@H](CC(C)(C)C)[C@](C#N)(c2ccc(Cl)cc2F)[C@H]1c1cccc(Cl)c1F [Idasanutlin, idasanutlin]
GOT3 cell line: DSS(combo (BAY2666605))-DSS(drug) [1]: −0.5
GOT3 cell line: DSS(combo (anagrelide))-DSS(drug) [1]: −1
SA4 cell line: DSS(combo (BAY2666605))-DSS(drug) [2]: 19.6
SA4 cell line: DSS(combo (anagrelide))-DSS(drug) [2]: 8.5
GIST882 cell line: DSS(combo (BAY2666605))-DSS(drug) [3]: 0
Average DSS (aDSS) [4]: 3.75
Average DSS (aDSS) [5]: 6.4
synergy in high-throughput screening (in words) [5]: synergistic

CC1(C)CCC(CN2CCN(c3ccc(C(=O)NS(=O)(=O)c4ccc(NCC5CCOCC5)c([N+](=O)[O-])c4)c(Oc4cnc5[nH]ccc5c4)c3)CC2)=C(c2ccc(Cl)cc2)C1 [Venetoclax, venetoclax]
GOT3 cell line: DSS(combo (BAY2666605))-DSS(drug) [1]: 0.2
GOT3 cell line: DSS(combo (anagrelide))-DSS(drug) [1]: 0
SA4 cell line: DSS(combo (BAY2666605))-DSS(drug) [2]: 29
SA4 cell line: DSS(combo (anagrelide))-DSS(drug) [2]: 6.2
GIST882 cell line: DSS(combo (BAY2666605))-DSS(drug) [3]: 12.2
Average DSS (aDSS) [4]: 3.1
Average DSS (aDSS) [5]: 13.8

CO[C@H]1C[C@@H]2CC[C@@H](C)[C@@](O)(O2)C(=O)C(=O)N2CCCC[C@H]2C(=O)O[C@H]([C@H](C)C[C@@H]2CC[C@@H](O)[C@H](OC)C2)CC(=O)[C@H](C)/C=C(\C)[C@@H](O)[C@@H](OC)C(=O)[C@H](C)C[C@H](C)/C=C/C=C/C=C/1C [Sirolimus, sirolimus]
GOT3 cell line: DSS(combo (BAY2666605))-DSS(drug) [1]: 2
GOT3 cell line: DSS(combo (anagrelide))-DSS(drug) [1]: 3.4
SA4 cell line: DSS(combo (BAY2666605))-DSS(drug) [2]: 7.9
SA4 cell line: DSS(combo (anagrelide))-DSS(drug) [2]: 9.5
GIST882 cell line: DSS(combo (BAY2666605))-DSS(drug) [3]: 3.4
Average DSS (aDSS) [4]: 6.45
Average DSS (aDSS) [5]: 4.4

CCN(CC)Cc1ccc2cc(COC(=O)Nc3ccc(C(=O)NO)cc3)ccc2c1 [Givinostat, givinostat]
GOT3 cell line: DSS(combo (BAY2666605))-DSS(drug) [1]: 3
GOT3 cell line: DSS(combo (anagrelide))-DSS(drug) [1]: −0.7
SA4 cell line: DSS(combo (BAY2666605))-DSS(drug) [2]: 18.5
SA4 cell line: DSS(combo (anagrelide))-DSS(drug) [2]: 10
GIST882 cell line: DSS(combo (BAY2666605))-DSS(drug) [3]: 7.3
Average DSS (aDSS) [4]: 4.65
Average DSS (aDSS) [5]: 9.6
synergy in high-throughput screening (in words) [5]: synergistic

O=C(CCCCCCC(=O)Nc1ccccc1)NO [Vorinostat, vorinostat]
GOT3 cell line: DSS(combo (BAY2666605))-DSS(drug) [1]: 1.6
GOT3 cell line: DSS(combo (anagrelide))-DSS(drug) [1]: −0.7
SA4 cell line: DSS(combo (BAY2666605))-DSS(drug) [2]: 13.7
SA4 cell line: DSS(combo (anagrelide))-DSS(drug) [2]: 7.2
GIST882 cell line: DSS(combo (BAY2666605))-DSS(drug) [3]: 4.2
Average DSS (aDSS) [4]: 3.25
Average DSS (aDSS) [5]: 6.5
synergy in high-throughput screening (in words) [5]: synergistic

CO[C@H]1C[C@@H]2CC[C@@H](C)[C@@](O)(O2)C(=O)C(=O)N2CCCC[C@H]2C(=O)O[C@H]([C@H](C)C[C@@H]2CC[C@@H](OP(C)(C)=O)[C@H](OC)C2)CC(=O)[C@H](C)/C=C(\C)[C@@H](O)[C@@H](OC)C(=O)[C@H](C)C[C@H](C)/C=C/C=C/C=C/1C [Ridaforolimus, ridaforolimus]
GOT3 cell line: DSS(combo (BAY2666605))-DSS(drug) [1]: −1.9
GOT3 cell line: DSS(combo (anagrelide))-DSS(drug) [1]: 4.4
SA4 cell line: DSS(combo (BAY2666605))-DSS(drug) [2]: 13.7
SA4 cell line: DSS(combo (anagrelide))-DSS(drug) [2]: 13.2
GIST882 cell line: DSS(combo (BAY2666605))-DSS(drug) [3]: 0.3
Average DSS (aDSS) [4]: 8.8
